Source: US9834542B2, “LXR modulators” (BRISTOL-MYERS SQUIBB COMPANY, priority 2013, dated 2017)

Target: T1, LXRβ (Homo sapiens, UniProt P55055)
T1 construct: Co-transfection expression plasmids, comprising full-length LXRα (pCMX-h LXRα[…] or LXRβ (pCMX-hLXRβ)); expressed in transfected cells; host or cells: CV-1 African Green Monkey Kidney Cells
T1 sequence (P55055 1-460): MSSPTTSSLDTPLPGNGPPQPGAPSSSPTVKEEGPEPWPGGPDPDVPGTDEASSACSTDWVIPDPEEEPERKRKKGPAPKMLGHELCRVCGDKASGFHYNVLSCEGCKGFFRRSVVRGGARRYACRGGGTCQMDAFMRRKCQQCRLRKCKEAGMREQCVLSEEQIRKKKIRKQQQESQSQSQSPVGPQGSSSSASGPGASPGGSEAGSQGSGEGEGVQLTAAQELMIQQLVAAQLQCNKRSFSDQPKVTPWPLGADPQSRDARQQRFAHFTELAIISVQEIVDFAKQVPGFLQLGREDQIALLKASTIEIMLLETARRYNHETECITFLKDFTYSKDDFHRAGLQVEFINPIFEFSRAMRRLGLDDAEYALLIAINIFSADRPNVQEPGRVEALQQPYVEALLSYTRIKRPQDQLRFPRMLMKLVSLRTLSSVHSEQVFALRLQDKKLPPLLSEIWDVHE
T1 sequence (P19793 1-462 partner): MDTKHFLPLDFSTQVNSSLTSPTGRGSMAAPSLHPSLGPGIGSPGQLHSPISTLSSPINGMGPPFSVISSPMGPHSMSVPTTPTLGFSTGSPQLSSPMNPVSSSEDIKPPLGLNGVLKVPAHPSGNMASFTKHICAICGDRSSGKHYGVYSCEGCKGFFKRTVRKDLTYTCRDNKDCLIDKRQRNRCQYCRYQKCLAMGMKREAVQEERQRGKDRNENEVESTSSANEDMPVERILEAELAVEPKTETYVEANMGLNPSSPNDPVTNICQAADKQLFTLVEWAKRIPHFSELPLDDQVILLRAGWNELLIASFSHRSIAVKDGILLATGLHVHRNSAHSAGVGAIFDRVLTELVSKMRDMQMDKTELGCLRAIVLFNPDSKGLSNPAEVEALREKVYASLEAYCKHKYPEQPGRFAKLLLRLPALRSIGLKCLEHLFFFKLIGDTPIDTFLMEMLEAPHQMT
Test: Co-transfection assay (LXRE luciferase reporter), LXRβ
Type: cell-based
Details: for EC50: CV-1 cells transfected with pCMX-hLXRβ and LXREx1-Tk-Luciferase, 20 hours incubation; for Emax: LXRβ co-transfection, relative to high control 1-(2,4-difluorobenzyl)-2-oxo-6-(4-phenoxyphenyl)-4-(trifluoromethyl)-1,2-dihydropyridine-3-carbonitrile, read-out: % Efficacy
Summary of the method: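 CV-1 / pCMX-hLXRβ + LXREx1-Tk-Luc + β-gal; cpd 20 h, 37 °C, ≤0.5% DMSO; Steady-Glo luminescence. 11-pt ½-log curves, duplicate wells, sigmoidal fit → EC50; % efficacy vs high-control agonist, DMSO low control; mean of ≥2 expts.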

Structure (SMILES) | EC50 [µM] | Emax [%]
Cc1nc(-c2cc(-c3cc(F)c(CO)c(S(C)(=O)=O)c3)ccc2-n2cc(C(F)(F)F)nc2C)c(-c2ccc(Cl)c(OC(F)F)c2)o1 [Example 459, (3′-(5-(4-chloro-3-(difluoromethoxy)phenyl)-2-methyloxazol-4-yl)-3-fluoro-4′-(2-methyl-4-(trifluoromethyl)-1H-imidazol-1-yl)-5-(methylsulfonyl)biphenyl-4-yl)methanol] | 0.174 | 77
Cc1nc(-c2cc(-c3cccc(S(C)(=O)=O)c3)ccc2-n2cc(C(F)(F)F)nc2C)c(-c2ccc(Cl)cc2Cl)o1 [Example 486, 5-(2,4-dichlorophenyl)-2-methyl-4-(4-(2-methyl-4-(trifluoromethyl)-1H-imidazol-1-yl)-3′-(methylsulfonyl)biphenyl-3-yl)oxazole] | 0.109 | 89
Cc1nc(C(F)(F)F)cn1-c1ccc(-c2cccc(S(C)(=O)=O)c2)cc1-n1nncc1-c1ccc(N2CCCC2)cc1 [Example 51, 1-{3′-(methylsulfonyl)-4-[2-methyl-4-(trifluoromethyl)-1H-imidazol-1-yl]biphenyl-3-yl}-5-(4-pyrrolidin-1-ylphenyl)-1H-1,2,3-triazole] | 0.158 | 107
Cc1nc(C(F)(F)F)cn1-c1ccc(-c2cccc(S(C)(=O)=O)c2)cc1-n1nncc1-c1ccc(Cl)c(F)c1 [Example 69, 5-(4-chloro-3-fluorophenyl)-1-{3′-(methylsulfonyl)-4-[2-methyl-4-(trifluoromethyl)-1H-imidazol-1-yl]biphenyl-3-yl}-1H-1,2,3-triazole] | 0.341 | 113
Cc1nc(-c2ccc(Cl)cc2Cl)c(-c2cc(-c3cc(F)c(CO)c(S(C)(=O)=O)c3)ccc2-n2cc(C(F)(F)F)nc2C)o1 [Example 609, (3′-(4-(2,4-dichlorophenyl)-2-methyloxazol-5-yl)-3-fluoro-4′-(2-methyl-4-(trifluoromethyl)-1H-imidazol-1-yl)-5-(methylsulfonyl)-[1,1′-biphenyl]-4-yl)methanol] | 0.036 | 91
Cc1nc(-c2cc(-c3cc(F)c(CO)c(S(C)(=O)=O)c3)ccc2-n2cc(C(F)(F)F)nc2C)c(-c2cccc(OC(F)(F)C(F)F)c2)o1 [Example 546, (3-fluoro-4′-(2-methyl-4-(trifluoromethyl)-1H-imidazol-1-yl)-3′-(2-methyl-5-(3-(1,1,2,2-tetrafluoroethoxy)phenyl)oxazol-4-yl)-5-(methylsulfonyl)-[1,1′-biphenyl]-4-yl)methanol] | 0.119 | 51
Cc1nc(-c2cc(-c3cc(F)c(CO)c(S(C)(=O)=O)c3)ccc2-n2cc(C(F)(F)F)nc2C)c(-c2ccc(OC(F)F)c(Cl)c2)o1 [Example 399, (3′-(5-(3-chloro-4-(difluoromethoxy)phenyl)-2-methyloxazol-4-yl)-3-fluoro-4′-(2-methyl-4-(trifluoromethyl)-1H-imidazol-1-yl)-5-(methylsulfonyl)biphenyl-4-yl)methanol] | 0.028 | 76
Cc1nc(-c2cc(-c3ccc(CCO)c(S(C)(=O)=O)c3)ccc2-n2cc(C(F)(F)F)nc2C)c(-c2ccc(OC(F)(F)F)cc2)o1 [Example 523, 2-(4′-(2-methyl-4-(trifluoromethyl)-1H-imidazol-1-yl)-3′-(2-methyl-5-(4-(trifluoromethoxy)phenyl)oxazol-4-yl)-3-(methylsulfonyl)-[1,1′-biphenyl]-4-yl)ethanol] | 0.067 | 102
Cc1nc(C(F)(F)F)cn1-c1ccc(-c2cc(F)c(CO)c(S(C)(=O)=O)c2)cc1-c1nc(CCO)oc1-c1ccc2c(c1)OC(F)(F)O2 [Example 530, 2-(5-(2,2-difluorobenzo[d][1,3]dioxol-5-yl)-4-(3′-fluoro-4′-(hydroxymethyl)-4-(2-methyl-4-(trifluoromethyl)-1H-imidazol-1-yl)-5′-(methylsulfonyl)-[1,1′-biphenyl]-3-yl)oxazol-2-yl)ethanol] | 0.739 | 71
Cc1nc(-c2ccccc2C(F)(F)F)c(-c2cc(-c3cc(F)c(CO)c(S(C)(=O)=O)c3)ccc2-n2cc(C(F)(F)F)nc2C)o1 [Example 630, (3-fluoro-3′-(2-methyl-4-(2-(trifluoromethyl)phenyl)oxazol-5-yl)-4′-(2-methyl-4-(triftuoromethyl)-1H-imidazol-1-yl)-5-(methylsulfonyl)-[1,1′-biphenyl]-4-yl)methanol] | 0.103 | 30
Cc1nc(C(F)(F)F)cn1-c1c(F)cc(-c2cc(Cl)c(CO)c(S(C)(=O)=O)c2)cc1-n1nncc1-c1ccc(OC(F)(F)F)cc1 [Example 197, [3-chloro-3′-fluoro-5-(methylsulfonyl)-4′-[2-methyl-4-(trifluoromethyl)-1H-imidazol-1-yl]-5′-(5-{4-[(trifluoromethyl)oxy]phenyl}-1H-1,2,3-triazol-1-yl)biphenyl-4-yl]methanol] | 0.252 | 76
CCc1nc(-c2cc(-c3cccc(S(C)(=O)=O)c3)ccc2-n2cc(C(F)(F)F)nc2C)c(-c2ccc(OC(F)(F)F)cc2)o1 [Example 555, 2-ethyl-4-(4-(2-methyl-4-(trifluoromethyl)-1H-imidazol-1-yl)-3′-(methylsulfonyl)-[1,1′-biphenyl]-3-yl)-5-(4-(trifluoromethoxy)phenyl)oxazole] | 0.018 | 96
Cc1nc(C(C)(F)F)cn1-c1ccc(-c2cccc(S(C)(=O)=O)c2)cc1-c1ocnc1-c1ccc(OC(F)(F)F)cc1 [Example 362, 5-{4-[4-(1,1-difluoroethyl)-2-methyl-1H-imidazol-1-yl]-3′-(methylsulfonyl)biphenyl-3-yl}-4-{4-[(trifluoromethyl)oxy]phenyl}-1,3-oxazole] | 0.691 | 75
CCC(F)(F)c1cn(-c2ccc(-c3cc(F)c(CO)c(S(C)(=O)=O)c3)cc2-c2ocnc2-c2ccc(OC(F)(F)F)cc2)c(C)n1 [Example 363, {4′-[4-(1,1-difluoropropyl)-2-methyl-1H-imidazol-1-yl]-3-fluoro-5-(methylsulfonyl)-3′-(4-{4-[(trifluoromethyl)oxy]phenyl}-1,3-oxazol-5-yl)biphenyl-4-yl}methanol] | 0.288 | 58
Cc1nc(C(F)(F)F)cn1-c1ccc(-c2cccc(S(C)(=O)=O)c2)cc1-n1nncc1Cc1ccc(OC(F)(F)F)cc1 [Example 118, 1-{3′-(methylsulfonyl)-4-[2-methyl-4-(trifluoromethyl)-1H-imidazol-1-yl]biphenyl-3-yl}-5-({4-[(trifluoromethyl)oxy]phen-yl}methyl)-1H-1,2,3-triazole] | 1.04 | 61
Cc1nc(-c2cc(-c3cccc(S(C)(=O)=O)c3)ccc2-n2cc(C(F)(F)F)nc2C)c(-c2ccc(OC3CCCC3)nc2)o1 [Example 410, 5-(6-(cyclopentyloxy)pyridin-3-yl)-2-methyl-4-(4-(2-methyl-4-(trifluoromethyl)-1H-imidazol-1-yl)-3′-(methylsulfonyl)biphenyl-3-yl)oxazole] | 0.204 | 49
Cc1nc(C(F)(F)F)cn1-c1ccc(-c2cccc(S(C)(=O)=O)c2)cc1-c1ccnn1-c1ccc(OC(F)(F)F)cc1 [Example 289, 5-{3′-(methylsulfonyl)-4-[2-methyl-4-(trifluoromethyl)-1H-imidazol-1-yl]biphenyl-3-yl}-1-{4-[(trifluoromethyl)oxy]phenyl}-1H-pyrazole] | 0.122 | 75
Cc1nc(Cl)cn1-c1ccc(-c2cc(F)c(CO)c(S(C)(=O)=O)c2)cc1-n1nncc1-c1ccc(Cl)cc1 [Example 148, [4′-(4-chloro-2-methyl-1H-imidazol-1-yl)-3′-[5-(4-chlorophenyl)-1H-1,2,3-triazol-1-yl]-3-fluoro-5-(methylsulfonyl)biphenyl-4-yl]methanol] | 0.447 | 42
Cc1nc(-c2cc(-c3cccc(S(C)(=O)=O)c3)ccc2-n2cc(C(F)(F)F)nc2C)c(-c2cccnc2C2CC2)o1 [Example 390, 5-(2-cyclopropylpyridin-3-yl)-2-methyl-4-(4-(2-methyl-4-(trifluoromethyl)-1H-imidazol-1-yl)-3′-(methylsulfonyl)biphenyl-3-yl)oxazole] | 2.08 | 62
